Assay results from ChEMBL document CHEMBL1144455, “A small molecule-kinase interaction map for clinical kinase inhibitors” (Nat Biotechnol, 2005).
pKd: −log10 of the molar value.

Assays:
[1] = target: T1, Serine/threonine-protein kinase 17A (Homo sapiens, UniProt Q9UEE5)
T1 sequence (Q9UEE5 whole entry): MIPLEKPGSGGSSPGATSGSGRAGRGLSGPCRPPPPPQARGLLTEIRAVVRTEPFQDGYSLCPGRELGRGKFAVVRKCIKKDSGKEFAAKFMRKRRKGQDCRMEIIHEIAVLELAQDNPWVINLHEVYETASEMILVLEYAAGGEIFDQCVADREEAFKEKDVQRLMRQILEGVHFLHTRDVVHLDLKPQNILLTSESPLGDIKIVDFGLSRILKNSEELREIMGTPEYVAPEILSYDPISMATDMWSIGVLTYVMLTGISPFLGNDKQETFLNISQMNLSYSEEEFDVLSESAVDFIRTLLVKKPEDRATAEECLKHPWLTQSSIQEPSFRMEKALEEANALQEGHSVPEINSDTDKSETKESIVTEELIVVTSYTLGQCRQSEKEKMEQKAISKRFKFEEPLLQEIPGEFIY

Ephrin type-A receptor 5 = Ephrin type-A receptor 5 (Homo sapiens, UniProt P54756)
[2] = target: Cyclin-dependent kinase 2 (Homo sapiens, UniProt P24941)
Aurora kinase C = target: T2, Aurora kinase C (Homo sapiens, UniProt Q9UQB9)
T2 sequence (Q9UQB9 whole entry): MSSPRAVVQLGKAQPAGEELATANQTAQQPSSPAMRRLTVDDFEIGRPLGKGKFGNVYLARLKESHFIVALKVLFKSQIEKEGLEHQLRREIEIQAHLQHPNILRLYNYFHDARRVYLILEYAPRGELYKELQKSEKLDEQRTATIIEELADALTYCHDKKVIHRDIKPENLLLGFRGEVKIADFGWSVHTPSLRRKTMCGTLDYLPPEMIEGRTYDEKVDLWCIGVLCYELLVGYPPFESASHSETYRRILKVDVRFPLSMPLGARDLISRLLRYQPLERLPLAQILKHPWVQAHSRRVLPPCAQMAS

Ephrin type-A receptor 7 = Ephrin type-A receptor 7 (Homo sapiens, UniProt Q15375)
Ephrin type-A receptor 3 = target: T3, Ephrin type-A receptor 3 (Homo sapiens, UniProt P29320)
T3 sequence (P29320 whole entry): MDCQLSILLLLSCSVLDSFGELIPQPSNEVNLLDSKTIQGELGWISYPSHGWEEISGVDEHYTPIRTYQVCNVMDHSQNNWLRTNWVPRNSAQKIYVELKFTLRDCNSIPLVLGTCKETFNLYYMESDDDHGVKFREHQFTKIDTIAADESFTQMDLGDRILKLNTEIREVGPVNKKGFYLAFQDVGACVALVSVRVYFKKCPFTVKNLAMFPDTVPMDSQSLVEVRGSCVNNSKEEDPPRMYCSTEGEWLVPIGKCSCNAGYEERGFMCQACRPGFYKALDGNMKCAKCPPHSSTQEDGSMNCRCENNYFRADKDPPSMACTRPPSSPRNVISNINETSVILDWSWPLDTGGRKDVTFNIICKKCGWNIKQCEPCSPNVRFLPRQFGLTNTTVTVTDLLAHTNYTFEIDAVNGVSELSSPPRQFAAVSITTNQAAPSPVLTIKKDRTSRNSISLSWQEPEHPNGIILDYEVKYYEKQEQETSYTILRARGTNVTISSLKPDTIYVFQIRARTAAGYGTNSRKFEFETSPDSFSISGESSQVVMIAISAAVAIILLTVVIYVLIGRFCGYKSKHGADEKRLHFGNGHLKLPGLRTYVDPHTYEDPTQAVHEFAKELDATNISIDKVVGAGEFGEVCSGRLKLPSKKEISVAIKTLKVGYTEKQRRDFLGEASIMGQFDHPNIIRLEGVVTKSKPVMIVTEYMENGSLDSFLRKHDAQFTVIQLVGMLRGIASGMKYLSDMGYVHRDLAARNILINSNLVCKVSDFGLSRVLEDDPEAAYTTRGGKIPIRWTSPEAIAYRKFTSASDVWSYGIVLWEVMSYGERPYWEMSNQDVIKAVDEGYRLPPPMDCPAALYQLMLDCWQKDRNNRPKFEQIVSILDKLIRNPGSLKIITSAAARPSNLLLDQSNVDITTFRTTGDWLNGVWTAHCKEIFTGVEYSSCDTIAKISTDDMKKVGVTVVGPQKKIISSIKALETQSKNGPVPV

[3] = target: Serine/threonine-protein kinase PAK 4 (Homo sapiens, UniProt O96013)
[4] = target: Calcium/calmodulin-dependent protein kinase type II subunit beta (Homo sapiens, UniProt Q13554)
[5] = target: Serine/threonine-protein kinase PAK 6 (Homo sapiens, UniProt Q9NQU5)
[6] = target: Serine/threonine-protein kinase Nek6 (Homo sapiens, UniProt Q9HC98)
[7] = target: 5'-AMP-activated protein kinase catalytic subunit alpha-1 (Homo sapiens, UniProt Q13131)
Insulin receptor = Insulin receptor (Homo sapiens, UniProt P06213)
[8] = target: Serine/threonine-protein kinase PAK 1 (Homo sapiens, UniProt Q13153)
[9] = target: Receptor-interacting serine/threonine-protein kinase 2 (Homo sapiens, UniProt O43353)
[10] = target: Proto-oncogene tyrosine-protein kinase Src (Homo sapiens, UniProt P12931)
Sequence of Proto-oncogene tyrosine-protein kinase Src (P12931 2-536 limits assumed): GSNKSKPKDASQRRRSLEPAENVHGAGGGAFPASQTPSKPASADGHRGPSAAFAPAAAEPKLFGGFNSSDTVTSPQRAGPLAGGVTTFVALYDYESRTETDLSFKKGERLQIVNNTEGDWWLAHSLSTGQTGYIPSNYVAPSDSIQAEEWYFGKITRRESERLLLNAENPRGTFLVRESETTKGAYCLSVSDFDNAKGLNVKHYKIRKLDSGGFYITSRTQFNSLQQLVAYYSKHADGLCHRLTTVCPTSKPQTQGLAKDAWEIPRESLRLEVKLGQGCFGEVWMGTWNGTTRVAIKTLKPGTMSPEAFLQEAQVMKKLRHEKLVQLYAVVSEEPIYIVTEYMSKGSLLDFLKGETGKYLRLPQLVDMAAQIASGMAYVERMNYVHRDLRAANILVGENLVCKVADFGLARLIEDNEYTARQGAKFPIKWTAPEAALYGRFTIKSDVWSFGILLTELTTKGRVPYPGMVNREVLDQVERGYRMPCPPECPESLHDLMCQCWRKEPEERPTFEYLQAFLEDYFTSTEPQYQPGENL

Sequence of Calcium/calmodulin-dependent protein kinase type II subunit beta (Q13554 whole entry): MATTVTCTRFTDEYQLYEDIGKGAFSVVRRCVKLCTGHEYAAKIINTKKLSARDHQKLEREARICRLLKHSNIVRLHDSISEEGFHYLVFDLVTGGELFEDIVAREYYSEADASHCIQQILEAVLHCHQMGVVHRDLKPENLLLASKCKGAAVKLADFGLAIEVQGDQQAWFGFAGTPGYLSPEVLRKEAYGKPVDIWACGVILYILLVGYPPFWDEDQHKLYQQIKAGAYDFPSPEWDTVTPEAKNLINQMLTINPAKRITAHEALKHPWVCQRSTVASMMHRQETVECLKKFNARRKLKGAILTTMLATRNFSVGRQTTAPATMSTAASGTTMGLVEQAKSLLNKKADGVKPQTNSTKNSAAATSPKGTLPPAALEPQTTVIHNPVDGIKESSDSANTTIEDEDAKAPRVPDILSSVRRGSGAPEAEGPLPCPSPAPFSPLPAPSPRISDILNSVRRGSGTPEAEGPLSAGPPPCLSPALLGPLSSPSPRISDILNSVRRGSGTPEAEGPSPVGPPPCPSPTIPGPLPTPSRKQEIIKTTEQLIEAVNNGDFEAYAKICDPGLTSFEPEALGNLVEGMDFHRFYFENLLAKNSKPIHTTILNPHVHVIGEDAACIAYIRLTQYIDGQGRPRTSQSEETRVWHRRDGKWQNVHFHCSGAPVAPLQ
Sequence of Serine/threonine-protein kinase PAK 4 (O96013 whole entry): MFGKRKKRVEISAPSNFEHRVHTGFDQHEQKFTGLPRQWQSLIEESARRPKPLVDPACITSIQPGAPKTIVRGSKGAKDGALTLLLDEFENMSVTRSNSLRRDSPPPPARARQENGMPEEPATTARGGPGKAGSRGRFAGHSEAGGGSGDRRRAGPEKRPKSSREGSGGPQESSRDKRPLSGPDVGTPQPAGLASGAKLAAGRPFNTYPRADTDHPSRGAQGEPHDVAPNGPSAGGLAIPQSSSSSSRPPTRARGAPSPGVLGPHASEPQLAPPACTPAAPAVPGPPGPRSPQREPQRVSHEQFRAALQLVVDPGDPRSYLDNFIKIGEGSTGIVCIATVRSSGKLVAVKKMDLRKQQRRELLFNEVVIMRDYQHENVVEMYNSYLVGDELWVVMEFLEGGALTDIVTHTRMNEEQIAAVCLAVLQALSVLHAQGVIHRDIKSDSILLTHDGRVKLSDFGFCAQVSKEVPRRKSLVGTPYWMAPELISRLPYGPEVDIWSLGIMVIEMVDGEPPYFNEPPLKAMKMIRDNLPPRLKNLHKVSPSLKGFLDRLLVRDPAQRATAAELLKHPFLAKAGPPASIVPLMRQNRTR
Sequence of Serine/threonine-protein kinase PAK 6 (Q9NQU5 whole entry): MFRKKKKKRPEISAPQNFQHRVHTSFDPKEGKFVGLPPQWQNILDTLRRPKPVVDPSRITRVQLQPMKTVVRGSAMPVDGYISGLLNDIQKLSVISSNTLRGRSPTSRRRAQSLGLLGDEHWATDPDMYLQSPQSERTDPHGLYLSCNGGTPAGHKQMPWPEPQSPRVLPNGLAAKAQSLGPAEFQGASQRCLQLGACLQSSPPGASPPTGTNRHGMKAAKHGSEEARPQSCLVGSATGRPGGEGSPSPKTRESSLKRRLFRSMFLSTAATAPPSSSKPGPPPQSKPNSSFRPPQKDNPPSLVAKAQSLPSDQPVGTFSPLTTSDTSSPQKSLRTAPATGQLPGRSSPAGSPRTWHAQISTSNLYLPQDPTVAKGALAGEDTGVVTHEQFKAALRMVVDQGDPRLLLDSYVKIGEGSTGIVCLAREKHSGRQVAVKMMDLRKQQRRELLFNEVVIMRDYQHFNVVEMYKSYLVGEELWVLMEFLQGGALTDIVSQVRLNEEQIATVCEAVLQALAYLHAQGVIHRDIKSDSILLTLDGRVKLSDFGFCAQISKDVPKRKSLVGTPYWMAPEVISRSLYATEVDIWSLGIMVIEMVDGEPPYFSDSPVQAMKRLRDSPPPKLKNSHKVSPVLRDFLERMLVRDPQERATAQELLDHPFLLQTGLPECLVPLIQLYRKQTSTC
Sequence of Serine/threonine-protein kinase Nek6 (Q9HC98 whole entry): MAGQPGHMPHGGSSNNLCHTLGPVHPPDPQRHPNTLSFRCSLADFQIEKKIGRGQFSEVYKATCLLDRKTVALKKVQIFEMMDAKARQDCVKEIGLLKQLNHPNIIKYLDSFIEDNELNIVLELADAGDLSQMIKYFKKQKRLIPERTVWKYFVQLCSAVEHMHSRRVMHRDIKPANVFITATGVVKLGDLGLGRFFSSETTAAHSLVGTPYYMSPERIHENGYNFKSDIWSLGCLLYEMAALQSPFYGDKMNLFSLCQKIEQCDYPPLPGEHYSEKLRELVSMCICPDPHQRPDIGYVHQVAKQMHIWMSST
Sequence of Insulin receptor (P06213 28-758 limits assumed): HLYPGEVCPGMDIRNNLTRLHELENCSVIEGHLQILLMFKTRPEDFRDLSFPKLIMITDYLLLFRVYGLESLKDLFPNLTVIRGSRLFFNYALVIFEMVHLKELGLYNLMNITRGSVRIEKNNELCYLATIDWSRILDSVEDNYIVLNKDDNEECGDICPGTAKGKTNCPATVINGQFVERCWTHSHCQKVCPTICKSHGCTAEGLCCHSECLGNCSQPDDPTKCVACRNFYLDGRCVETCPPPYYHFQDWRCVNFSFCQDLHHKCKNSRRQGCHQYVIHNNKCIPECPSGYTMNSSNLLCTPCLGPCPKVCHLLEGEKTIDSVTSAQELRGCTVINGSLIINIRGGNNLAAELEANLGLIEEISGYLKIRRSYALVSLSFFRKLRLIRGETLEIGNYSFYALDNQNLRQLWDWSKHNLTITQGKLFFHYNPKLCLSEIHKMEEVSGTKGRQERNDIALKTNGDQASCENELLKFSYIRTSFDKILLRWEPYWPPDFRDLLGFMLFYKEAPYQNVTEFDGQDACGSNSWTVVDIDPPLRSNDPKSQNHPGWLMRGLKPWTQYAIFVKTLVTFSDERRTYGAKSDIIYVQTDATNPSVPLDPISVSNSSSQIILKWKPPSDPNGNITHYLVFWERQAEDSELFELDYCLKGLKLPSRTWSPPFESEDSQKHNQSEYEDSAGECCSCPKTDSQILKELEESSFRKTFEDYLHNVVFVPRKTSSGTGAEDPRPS
Sequence of Insulin receptor (P06213 763-1382 limits assumed): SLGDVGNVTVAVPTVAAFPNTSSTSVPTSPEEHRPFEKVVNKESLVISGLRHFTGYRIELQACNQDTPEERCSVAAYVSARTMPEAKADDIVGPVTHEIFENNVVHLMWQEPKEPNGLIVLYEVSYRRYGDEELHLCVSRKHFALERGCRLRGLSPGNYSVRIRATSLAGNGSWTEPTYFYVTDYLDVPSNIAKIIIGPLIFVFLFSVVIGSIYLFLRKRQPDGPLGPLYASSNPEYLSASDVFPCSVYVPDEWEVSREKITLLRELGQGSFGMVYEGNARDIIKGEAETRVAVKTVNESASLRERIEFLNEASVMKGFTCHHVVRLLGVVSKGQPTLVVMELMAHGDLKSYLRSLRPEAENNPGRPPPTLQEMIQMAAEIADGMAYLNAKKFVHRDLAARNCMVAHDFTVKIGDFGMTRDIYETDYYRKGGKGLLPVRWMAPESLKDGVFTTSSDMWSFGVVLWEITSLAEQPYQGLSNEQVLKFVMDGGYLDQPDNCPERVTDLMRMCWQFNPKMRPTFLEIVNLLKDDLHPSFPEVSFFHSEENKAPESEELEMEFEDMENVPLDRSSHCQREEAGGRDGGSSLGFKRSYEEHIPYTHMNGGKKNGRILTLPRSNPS
Sequence of Serine/threonine-protein kinase PAK 1 (Q13153 whole entry): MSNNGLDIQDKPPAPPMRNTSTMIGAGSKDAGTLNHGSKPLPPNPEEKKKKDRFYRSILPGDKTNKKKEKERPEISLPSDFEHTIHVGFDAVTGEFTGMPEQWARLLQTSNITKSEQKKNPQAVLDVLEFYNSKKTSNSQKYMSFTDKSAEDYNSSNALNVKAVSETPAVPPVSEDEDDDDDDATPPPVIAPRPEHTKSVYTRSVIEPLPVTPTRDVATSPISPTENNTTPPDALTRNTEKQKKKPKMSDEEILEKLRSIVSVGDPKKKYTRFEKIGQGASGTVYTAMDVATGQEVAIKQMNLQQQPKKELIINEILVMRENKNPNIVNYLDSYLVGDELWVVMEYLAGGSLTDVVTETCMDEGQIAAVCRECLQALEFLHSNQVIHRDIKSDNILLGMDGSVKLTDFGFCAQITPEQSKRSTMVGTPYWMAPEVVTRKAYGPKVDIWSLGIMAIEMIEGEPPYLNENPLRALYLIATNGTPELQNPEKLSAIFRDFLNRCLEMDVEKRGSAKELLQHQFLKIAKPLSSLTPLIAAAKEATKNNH

SMILES | Kd [1] | Kd (Ephrin type-A receptor 5) | Kd [2] | Kd (Aurora kinase C) | Kd (Ephrin type-A receptor 7) | Kd (Ephrin type-A receptor 3) | Kd [3] | Kd [4] | Kd [5] | Kd [6] | Kd [7] | Kd (Insulin receptor) | Kd [8] | Kd [9] | pKd ([10]; read-out: Kd) | Kd [10]
C#Cc1cccc(Nc2ncnc3cc(OCCOC)c(OCCOC)cc23)c1 [ERLOTINIB] | Not Active | Not Active | Not Active | Not Active | Not Active | Not Active | Not Active | Not Active | Not Active | Not Active | Not Active | Not Active | Not Active |  |  | 
Cc1ccc(NC(=O)c2ccc(CN3CCN(C)CC3)cc2)cc1Nc1nccc(-c2cccnc2)n1 [IMATINIB] |  | Not Active |  | Not Active | Not Active | Not Active | Not Active | Not Active | Not Active | Not Active | Not Active | Not Active | Not Active | Not Active |  | 
O=c1ncn2nc(Sc3ccc(F)cc3F)ccc2c1-c1c(Cl)cccc1Cl [NEFLAMAPIMOD] | Not Active |  | Not Active | Not Active | Not Active | Not Active | Not Active | Not Active | Not Active | Not Active | Not Active | Not Active | Not Active | Not Active |  | 
CCOc1cc2ncc(C#N)c(Nc3ccc(F)c(Cl)c3)c2cc1NC(=O)/C=C/CN(C)C [PELITINIB] |  |  | Not Active | Not Active | Not Active |  | Not Active | Not Active | Not Active | Not Active | Not Active | Not Active |  | Not Active | 6.92 | 
Oc1ccc(-c2nc(-c3ccc(F)cc3)c(-c3ccncc3)[nH]2)cc1 [SB-202190] | Not Active | Not Active | Not Active | Not Active | Not Active | Not Active | Not Active | Not Active | Not Active | Not Active | Not Active | Not Active | Not Active |  |  | Not Active
C[S+]([O-])c1ccc(-c2nc(-c3ccc(F)cc3)c(-c3ccncc3)[nH]2)cc1 (stereo unspecified) [SB-203580] | Not Active | Not Active | Not Active | Not Active | Not Active | Not Active | Not Active | Not Active | Not Active | Not Active | Not Active | Not Active | Not Active |  |  | Not Active
CC[C@H](CO)Nc1nc(NCc2ccccc2)c2ncn(C(C)C)c2n1 [SELICICLIB] | Not Active | Not Active |  | Not Active | Not Active | Not Active | Not Active | Not Active | Not Active | Not Active | Not Active | Not Active | Not Active | Not Active |  | Not Active
Oc1c2ccccc2c2c3c(cccc13)N=N2 [SP-600125] |  | Not Active |  |  | Not Active |  | Not Active |  | Not Active | Not Active | Not Active | Not Active | Not Active | Not Active |  | Not Active
COc1cc2c(N3CCN(C(=O)Nc4ccc(OC(C)C)cc4)CC3)ncnc2cc1OCCCN1CCCCC1 [TANDUTINIB] | Not Active | Not Active | Not Active | Not Active | Not Active | Not Active | Not Active | Not Active | Not Active | Not Active | Not Active | Not Active | Not Active | Not Active |  | Not Active
